Results as given in the NIST ThermoML archive (doi:10.1016/j.jct.2015.08.021).

Key:
[1] = 298.15 K; 101.33 kPa; Liquid; Vibrating tube method
[2] = relative permittivity at various frequencies (dimensionless); conditions: 101.3 kPa, Liquid, Frequency=0.1 MHz, Coaxial cylinder capacitor
[3] = refractive index (Na D-line) (dimensionless); conditions: 101.3 kPa, Liquid, Standard Abbe refractometry
[4] = refractive index (Na D-line) (dimensionless); xn = mol fraction of the nth substance listed; conditions: 101.3 kPa, Liquid, Standard Abbe refractometry
[5] = relative permittivity at various frequencies (dimensionless); xn = mol fraction of the nth substance listed; conditions: 101.3 kPa, Liquid, Frequency=0.1 MHz, Coaxial cylinder capacitor

CC(C)CCO [3-methylbutan-1-ol]
Conditions | mass density [kg/m3]
[1] | 807.16

Conditions | refractive index, 298.15 K | refractive index, 308.15 K | refractive index, 318.15 K | relative permittivity, 298.15 K | relative permittivity, 308.15 K | relative permittivity, 318.15 K
[2] | – | – | – | 14.93 | 13.402 | 12.051
[3] | 1.4048 | 1.4011 | 1.3973 | – | – | –

C1COCCO1 [1,4-dioxane] + CCCCCO
Conditions | refractive index, 298.15 K | refractive index, 308.15 K | refractive index, 318.15 K | relative permittivity, 298.15 K | relative permittivity, 308.15 K | relative permittivity, 318.15 K
[4], x2 = 0 | 1.4202 | 1.4144 | 1.4086 | – | – | –
[4], x2 = 0.1 | 1.4181 | 1.4121 | 1.407 | – | – | –
[4], x2 = 0.2 | 1.4161 | 1.4103 | 1.4055 | – | – | –
[4], x2 = 0.3 | 1.4144 | 1.4088 | 1.4042 | – | – | –
[4], x2 = 0.4 | 1.4128 | 1.4074 | 1.403 | – | – | –
[4], x2 = 0.501 | 1.4114 | 1.4063 | 1.4021 | – | – | –
[4], x2 = 0.599 | 1.4104 | 1.4055 | 1.4014 | – | – | –
[4], x2 = 0.699 | 1.4096 | 1.4048 | 1.4008 | – | – | –
[4], x2 = 0.801 | 1.409 | 1.4044 | 1.4004 | – | – | –
[4], x2 = 0.9 | 1.4086 | 1.4042 | 1.4002 | – | – | –
[5], x2 = 0 | – | – | – | 2.229 | 2.209 | 2.187
[5], x2 = 0.1 | – | – | – | 2.657 | 2.587 | 2.527
[5], x2 = 0.2 | – | – | – | 3.255 | 3.124 | 3.024
[5], x2 = 0.3 | – | – | – | 4.016 | 3.77 | 3.63
[5], x2 = 0.4 | – | – | – | 4.941 | 4.63 | 4.402
[5], x2 = 0.501 | – | – | – | 6.082 | 5.652 | 5.34
[5], x2 = 0.599 | – | – | – | 7.387 | 6.781 | 6.332
[5], x2 = 0.699 | – | – | – | 8.915 | 8.18 | 7.529
[5], x2 = 0.801 | – | – | – | 10.714 | 9.793 | 8.951
[5], x2 = 0.9 | – | – | – | 12.796 | 11.622 | 10.578

CC(C)CCO [3-methylbutan-1-ol] + OCCCCO
x2 = 0
Conditions | refractive index, 298.15 K | refractive index, 308.15 K | refractive index, 318.15 K | relative permittivity, 298.15 K | relative permittivity, 308.15 K | relative permittivity, 318.15 K
[4] | 1.4048 | 1.4011 | 1.3973 | – | – | –
[5] | – | – | – | 14.93 | 13.402 | 12.051

CCCCCO [pentan-1-ol]
Conditions | mass density [kg/m3]
[1] | 811.1

Conditions | refractive index, 298.15 K | refractive index, 308.15 K | refractive index, 318.15 K | relative permittivity, 298.15 K | relative permittivity, 308.15 K | relative permittivity, 318.15 K
[2] | – | – | – | 15.11 | 13.72 | 12.391
[3] | 1.4082 | 1.4041 | 1.4001 | – | – | –

CCCCCO [pentan-1-ol] + OCCCCO
x2 = 0
Conditions | refractive index, 298.15 K | refractive index, 308.15 K | refractive index, 318.15 K | relative permittivity, 298.15 K | relative permittivity, 308.15 K | relative permittivity, 318.15 K
[4] | 1.4082 | 1.4041 | 1.4001 | – | – | –
[5] | – | – | – | 15.11 | 13.72 | 12.391

C1COCCO1 [1,4-dioxane]
Conditions | mass density [kg/m3]
[1] | 1027.86

Conditions | refractive index, 298.15 K | refractive index, 308.15 K | refractive index, 318.15 K | relative permittivity, 298.15 K | relative permittivity, 308.15 K | relative permittivity, 318.15 K
[2] | – | – | – | 2.229 | 2.209 | 2.187
[3] | 1.4202 | 1.4144 | 1.4086 | – | – | –

CC(C)CCO [3-methylbutan-1-ol] + C1COCCO1
Conditions | refractive index, 298.15 K | refractive index, 308.15 K | refractive index, 318.15 K | relative permittivity, 298.15 K | relative permittivity, 308.15 K | relative permittivity, 318.15 K
[4], x1 = 0.1 | 1.4177 | 1.4125 | 1.4069 | – | – | –
[4], x1 = 0.203 | 1.4151 | 1.4105 | 1.4054 | – | – | –
[4], x1 = 0.301 | 1.4133 | 1.4088 | 1.4039 | – | – | –
[4], x1 = 0.4 | 1.4114 | 1.4072 | 1.4026 | – | – | –
[4], x1 = 0.5 | 1.4098 | 1.4057 | 1.4012 | – | – | –
[4], x1 = 0.601 | 1.4084 | 1.4045 | 1.4001 | – | – | –
[4], x1 = 0.699 | 1.4072 | 1.4034 | 1.3992 | – | – | –
[4], x1 = 0.8 | 1.4063 | 1.4023 | 1.3984 | – | – | –
[4], x1 = 0.899 | 1.4054 | 1.4013 | 1.3978 | – | – | –
[4], x1 = 1 | 1.4048 | 1.4011 | 1.3973 | – | – | –
[5], x1 = 0.1 | – | – | – | 2.694 | 2.634 | 2.57
[5], x1 = 0.203 | – | – | – | 3.292 | 3.168 | 3.055
[5], x1 = 0.301 | – | – | – | 4.014 | 3.804 | 3.632
[5], x1 = 0.4 | – | – | – | 4.91 | 4.629 | 4.376
[5], x1 = 0.5 | – | – | – | 6.024 | 5.611 | 5.239
[5], x1 = 0.601 | – | – | – | 7.327 | 6.743 | 6.232
[5], x1 = 0.699 | – | – | – | 8.82 | 8.037 | 7.343
[5], x1 = 0.8 | – | – | – | 10.64 | 9.655 | 8.702
[5], x1 = 0.899 | – | – | – | 12.649 | 11.434 | 10.315
[5], x1 = 1 | – | – | – | 14.93 | 13.402 | 12.051
